Assays:
Details in all cases: octanol/water
[1] = Partition coefficient of compound was measured in heptane/water system
[2] = physchem
Description: Partition coefficient (logP)

[3] = physchem; remark: listed apart in the source
Description: Partition coefficient (logP)

Row | Structure (SMILES) | Log Phep [1] | logP [2] | logP [3]
1 | CC(=O)Nc1ccc(F)cc1 | -1.57 | 1.61 | 1.47
2 | NC(=O)c1ccccc1 [BENZAMIDE] | -2.45 |  | 
3 | O=[N+]([O-])c1ccccc1O [NITROPHENOLATE] | 1.04 | 1.85 | 1.68
4 | O=[N+]([O-])c1ccc(O)cc1 [P-NITROPHENOL] | -2.11 | 1.85 | 1.77
5 | Oc1ccccc1 [PHENOL] | -0.82 |  | 

Further lines, results first:

Row | Log Phep [1] | logP [2] | logP [3] | Structure (SMILES)
6 | -0.69 | 0.96 | 0.96 | CC(=O)Nc1ccccc1F
7 | -1.47 | 0.5 | 0.64 | NC(=O)c1ccccc1F
8 | < -3 | 2.19 | 1.05 | O=C1N[C@H](Cc2ccc(O)cc2)C(=O)N[C@H]1Cc1c[nH]c2ccccc12
9 | -2.34 | 1 | 0.96 | NC(=O)c1ccc(F)cc1
10 | < -3 | 2.86 | 1.59 | O=C1N[C@@H](Cc2ccccc2)C(=O)N[C@H]1Cc1ccccc1
11 | -1.54 |  |  | CC(=O)Nc1ccccc1 [ACETANILIDE]
